Measurements published in US20050070603A1, “Use of glycerides to alleviate symptoms of digestive disorders” (priority 2003, published 2005).

Test system: Irritable Bowel Syndrome symptoms (pain associated with intestinal gas, bloating and constipation)
Experiment: Case report: patient suffering from IBS taking MCT orally
Type: in vivo, human
Experimental: Over a period of 8 weeks, the patient increased the dose of MCT to approx. 15 mL (in approx. 240 mL of soymilk) per day to achieve complete symptomatic relief from IBS.

## Caprylic triglyceride [Neobee 895]
After 10 months of use of MCT
  change in HDL, LDL and triglyceride levels: no noticeable change
Continued use, approx. 1 year
  adverse effects on continued use: without any adverse effects
  continued relief from IBS symptoms: complete relief from the IBS symptoms
initially, one teaspoon (approx. 5 mL) MCT as emulsion in soymilk (approx. 240 mL) per day, one patient
  improvement of IBS symptoms: some improvement
One tablespoon (approx. 15 mL) MCT per day, oral, in approx. 240 mL soymilk, dose increased over 8 weeks, one patient
  relief of IBS symptoms: complete relief of the symptoms
